Laboratory results published in ChEMBL document CHEMBL5442219.

Tests used:
Conditions in all cases: Compound concentration 10 µM
[1] = molecular target: Histamine H3 receptor (Homo sapiens) (UniProt Q9Y5N1)
[2] = molecular target: D(1A) dopamine receptor (Homo sapiens) (UniProt P21728)
[3] = molecular target: Sigma intracellular receptor 2 (Homo sapiens) (UniProt Q5BJF2)
[4] = molecular target: Muscarinic acetylcholine receptor M3 (Homo sapiens) (UniProt P20309)
[5] = molecular target: Histamine H4 receptor (Homo sapiens) (UniProt Q9H3N8)
Histamine H4 receptor (Homo sapiens), sequence (Q9H3N8 whole entry): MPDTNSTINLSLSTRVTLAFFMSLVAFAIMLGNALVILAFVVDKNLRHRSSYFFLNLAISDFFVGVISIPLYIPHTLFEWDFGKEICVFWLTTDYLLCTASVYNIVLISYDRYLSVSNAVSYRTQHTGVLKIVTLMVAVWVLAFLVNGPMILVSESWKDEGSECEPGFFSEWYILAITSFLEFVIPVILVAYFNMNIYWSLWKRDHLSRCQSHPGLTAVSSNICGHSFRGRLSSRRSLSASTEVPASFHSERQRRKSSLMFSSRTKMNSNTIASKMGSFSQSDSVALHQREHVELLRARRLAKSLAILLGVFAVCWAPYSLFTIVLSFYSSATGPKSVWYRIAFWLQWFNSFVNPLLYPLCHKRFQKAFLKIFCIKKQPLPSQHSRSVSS

[6] = molecular target: Sodium-dependent serotonin transporter (Homo sapiens) (UniProt P31645)
Sodium-dependent serotonin transporter (Homo sapiens), sequence (P31645 whole entry, looked up): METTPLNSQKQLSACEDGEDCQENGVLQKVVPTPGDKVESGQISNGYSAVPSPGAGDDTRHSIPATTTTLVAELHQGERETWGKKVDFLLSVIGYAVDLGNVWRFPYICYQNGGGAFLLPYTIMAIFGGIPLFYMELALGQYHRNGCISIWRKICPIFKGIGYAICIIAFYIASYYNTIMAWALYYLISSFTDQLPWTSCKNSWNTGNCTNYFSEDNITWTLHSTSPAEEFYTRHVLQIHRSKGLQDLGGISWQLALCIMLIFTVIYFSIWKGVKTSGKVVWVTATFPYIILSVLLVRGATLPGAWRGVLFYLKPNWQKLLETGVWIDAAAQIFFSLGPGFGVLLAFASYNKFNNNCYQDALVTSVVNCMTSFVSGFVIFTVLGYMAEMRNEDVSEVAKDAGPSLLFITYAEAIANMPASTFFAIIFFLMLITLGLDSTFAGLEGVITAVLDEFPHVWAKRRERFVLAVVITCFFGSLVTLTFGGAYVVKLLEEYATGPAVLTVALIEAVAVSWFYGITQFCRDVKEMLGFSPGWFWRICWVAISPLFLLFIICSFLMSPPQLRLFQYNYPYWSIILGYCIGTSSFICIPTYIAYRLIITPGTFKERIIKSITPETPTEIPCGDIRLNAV

[7] = molecular target: T1, 5-hydroxytryptamine receptor 3A (Homo sapiens) (UniProt P46098)
T1 sequence (whole entry): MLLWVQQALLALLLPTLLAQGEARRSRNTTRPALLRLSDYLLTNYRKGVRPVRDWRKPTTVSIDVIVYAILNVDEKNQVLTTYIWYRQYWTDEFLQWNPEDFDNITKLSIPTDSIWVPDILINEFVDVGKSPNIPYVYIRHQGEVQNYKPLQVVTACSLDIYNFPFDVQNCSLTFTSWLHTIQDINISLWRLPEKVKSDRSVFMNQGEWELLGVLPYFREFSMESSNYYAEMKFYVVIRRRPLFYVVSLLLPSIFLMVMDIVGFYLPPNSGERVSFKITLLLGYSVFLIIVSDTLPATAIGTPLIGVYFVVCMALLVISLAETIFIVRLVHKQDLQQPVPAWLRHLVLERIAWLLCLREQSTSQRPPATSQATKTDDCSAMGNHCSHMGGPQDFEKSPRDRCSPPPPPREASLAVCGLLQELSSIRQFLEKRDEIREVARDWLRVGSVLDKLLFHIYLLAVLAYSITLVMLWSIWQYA

[8] = molecular target: Delta-type opioid receptor (Homo sapiens) (UniProt P41143)
Delta-type opioid receptor (Homo sapiens), sequence (P41143 whole entry): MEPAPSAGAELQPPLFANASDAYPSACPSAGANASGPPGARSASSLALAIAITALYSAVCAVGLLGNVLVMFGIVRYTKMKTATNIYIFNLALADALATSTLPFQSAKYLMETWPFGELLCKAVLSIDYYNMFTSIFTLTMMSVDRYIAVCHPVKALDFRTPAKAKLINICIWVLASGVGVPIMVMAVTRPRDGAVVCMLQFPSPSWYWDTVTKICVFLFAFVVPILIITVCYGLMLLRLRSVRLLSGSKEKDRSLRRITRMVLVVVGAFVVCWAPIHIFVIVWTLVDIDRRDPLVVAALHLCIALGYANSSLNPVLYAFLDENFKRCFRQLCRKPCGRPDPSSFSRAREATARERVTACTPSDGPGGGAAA

[9] = molecular target: 5-hydroxytryptamine receptor 2A (Homo sapiens) (UniProt P28223)
[10] = molecular target: 5-hydroxytryptamine receptor 2B (Homo sapiens) (UniProt P41595)
5-hydroxytryptamine receptor 2B (Homo sapiens), sequence (P41595 whole entry): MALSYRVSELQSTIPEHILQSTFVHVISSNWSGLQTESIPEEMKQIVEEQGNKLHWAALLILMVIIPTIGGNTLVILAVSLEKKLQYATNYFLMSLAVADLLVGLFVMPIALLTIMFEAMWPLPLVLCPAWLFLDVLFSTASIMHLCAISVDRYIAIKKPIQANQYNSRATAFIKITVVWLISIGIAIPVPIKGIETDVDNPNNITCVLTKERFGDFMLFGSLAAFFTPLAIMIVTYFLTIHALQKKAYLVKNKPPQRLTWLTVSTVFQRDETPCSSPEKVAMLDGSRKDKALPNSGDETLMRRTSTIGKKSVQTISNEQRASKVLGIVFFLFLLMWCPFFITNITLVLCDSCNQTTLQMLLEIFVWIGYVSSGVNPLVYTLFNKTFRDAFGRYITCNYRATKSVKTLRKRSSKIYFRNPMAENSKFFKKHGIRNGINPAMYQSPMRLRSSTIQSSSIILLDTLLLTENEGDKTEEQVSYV

[11] = molecular target: 5-hydroxytryptamine receptor 1D (Homo sapiens) (UniProt P28221)
5-hydroxytryptamine receptor 1D (Homo sapiens), sequence (P28221 whole entry): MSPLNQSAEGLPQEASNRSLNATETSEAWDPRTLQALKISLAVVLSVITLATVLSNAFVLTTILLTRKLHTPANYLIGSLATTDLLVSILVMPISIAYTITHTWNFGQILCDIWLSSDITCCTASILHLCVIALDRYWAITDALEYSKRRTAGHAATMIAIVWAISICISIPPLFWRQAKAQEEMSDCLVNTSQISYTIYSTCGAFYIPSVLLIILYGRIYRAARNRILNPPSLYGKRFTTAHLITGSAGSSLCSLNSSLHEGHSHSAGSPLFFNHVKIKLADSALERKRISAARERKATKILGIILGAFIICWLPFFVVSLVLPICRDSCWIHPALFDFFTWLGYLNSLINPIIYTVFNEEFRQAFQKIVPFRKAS

[12] = molecular target: D(3) dopamine receptor (Homo sapiens) (UniProt P35462)
D(3) dopamine receptor (Homo sapiens), sequence (P35462 whole entry): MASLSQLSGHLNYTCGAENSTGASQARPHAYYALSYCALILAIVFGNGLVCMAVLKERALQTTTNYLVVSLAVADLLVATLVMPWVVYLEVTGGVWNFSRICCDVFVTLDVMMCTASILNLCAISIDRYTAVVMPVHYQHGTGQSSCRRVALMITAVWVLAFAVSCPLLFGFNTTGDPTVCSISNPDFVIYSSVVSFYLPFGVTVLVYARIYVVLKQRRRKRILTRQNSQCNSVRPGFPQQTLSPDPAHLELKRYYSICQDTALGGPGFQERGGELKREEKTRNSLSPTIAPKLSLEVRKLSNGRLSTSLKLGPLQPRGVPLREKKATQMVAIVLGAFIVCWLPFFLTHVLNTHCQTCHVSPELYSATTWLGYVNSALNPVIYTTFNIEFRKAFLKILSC

[13] = molecular target: 5-hydroxytryptamine receptor 6 (Homo sapiens) (UniProt P50406)
[14] = molecular target: D(1B) dopamine receptor (Homo sapiens) (UniProt P21918)
[15] = molecular target: Kappa-type opioid receptor (Homo sapiens) (UniProt P41145)
Kappa-type opioid receptor (Homo sapiens), sequence (P41145 whole entry): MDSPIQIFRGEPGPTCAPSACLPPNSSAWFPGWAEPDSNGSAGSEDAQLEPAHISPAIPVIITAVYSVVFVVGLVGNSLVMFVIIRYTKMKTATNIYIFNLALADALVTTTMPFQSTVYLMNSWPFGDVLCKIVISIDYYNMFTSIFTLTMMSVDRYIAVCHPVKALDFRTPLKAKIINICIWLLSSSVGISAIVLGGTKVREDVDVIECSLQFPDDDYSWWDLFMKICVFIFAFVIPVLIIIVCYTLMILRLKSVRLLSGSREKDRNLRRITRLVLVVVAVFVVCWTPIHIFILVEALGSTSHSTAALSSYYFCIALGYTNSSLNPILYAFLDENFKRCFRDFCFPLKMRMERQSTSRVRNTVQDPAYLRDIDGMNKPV

[16] = molecular target: Sodium-dependent dopamine transporter (Homo sapiens) (UniProt Q01959)
Sodium-dependent dopamine transporter (Homo sapiens), sequence (Q01959 whole entry): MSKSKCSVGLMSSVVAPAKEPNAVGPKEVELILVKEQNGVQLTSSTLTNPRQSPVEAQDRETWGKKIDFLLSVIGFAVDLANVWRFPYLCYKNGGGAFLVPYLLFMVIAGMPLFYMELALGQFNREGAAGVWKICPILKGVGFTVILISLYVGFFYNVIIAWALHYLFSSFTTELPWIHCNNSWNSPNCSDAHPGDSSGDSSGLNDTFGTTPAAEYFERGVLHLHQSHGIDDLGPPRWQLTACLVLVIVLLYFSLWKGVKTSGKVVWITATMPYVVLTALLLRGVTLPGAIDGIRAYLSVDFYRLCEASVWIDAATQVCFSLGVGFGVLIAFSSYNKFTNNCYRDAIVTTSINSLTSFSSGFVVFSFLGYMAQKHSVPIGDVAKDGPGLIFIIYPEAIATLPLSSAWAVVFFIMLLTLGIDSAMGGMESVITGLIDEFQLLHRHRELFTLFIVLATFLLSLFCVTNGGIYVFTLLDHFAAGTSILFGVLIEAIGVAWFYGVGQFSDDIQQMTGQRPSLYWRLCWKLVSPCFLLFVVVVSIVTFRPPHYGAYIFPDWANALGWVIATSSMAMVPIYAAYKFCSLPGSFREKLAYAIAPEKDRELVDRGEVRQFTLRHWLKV

[17] = molecular target: T2, D(4) dopamine receptor (Homo sapiens) (UniProt P21917)
T2 sequence (whole entry): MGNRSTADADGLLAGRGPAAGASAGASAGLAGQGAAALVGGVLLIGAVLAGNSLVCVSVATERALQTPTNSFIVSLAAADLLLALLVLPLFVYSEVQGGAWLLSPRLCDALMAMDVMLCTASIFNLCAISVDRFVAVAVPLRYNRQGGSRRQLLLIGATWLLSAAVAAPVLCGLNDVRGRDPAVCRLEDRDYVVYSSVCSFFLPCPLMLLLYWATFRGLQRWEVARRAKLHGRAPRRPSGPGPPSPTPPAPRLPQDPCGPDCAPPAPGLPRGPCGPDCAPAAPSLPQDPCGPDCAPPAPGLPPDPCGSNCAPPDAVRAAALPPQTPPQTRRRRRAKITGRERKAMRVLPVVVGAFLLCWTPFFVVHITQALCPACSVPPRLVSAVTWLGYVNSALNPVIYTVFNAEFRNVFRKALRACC

[18] = molecular target: Beta-1 adrenergic receptor (Homo sapiens) (UniProt P08588)
Beta-1 adrenergic receptor (Homo sapiens), sequence (P08588 whole entry, looked up): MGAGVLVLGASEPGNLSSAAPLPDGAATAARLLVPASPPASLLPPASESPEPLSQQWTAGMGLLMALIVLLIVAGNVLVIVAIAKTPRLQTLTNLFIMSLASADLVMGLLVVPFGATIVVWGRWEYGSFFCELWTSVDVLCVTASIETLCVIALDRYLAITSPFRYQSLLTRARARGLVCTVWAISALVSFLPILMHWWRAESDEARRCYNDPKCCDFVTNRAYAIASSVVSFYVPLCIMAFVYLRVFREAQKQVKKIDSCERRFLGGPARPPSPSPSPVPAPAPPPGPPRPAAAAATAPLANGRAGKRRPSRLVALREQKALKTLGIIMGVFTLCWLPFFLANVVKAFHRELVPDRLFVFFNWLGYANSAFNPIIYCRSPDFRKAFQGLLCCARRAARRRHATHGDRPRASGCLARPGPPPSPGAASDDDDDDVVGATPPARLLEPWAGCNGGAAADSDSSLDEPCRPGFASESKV

[19] = molecular target: T3, Muscarinic acetylcholine receptor M2 (Homo sapiens) (UniProt P08172)
T3 sequence (whole entry): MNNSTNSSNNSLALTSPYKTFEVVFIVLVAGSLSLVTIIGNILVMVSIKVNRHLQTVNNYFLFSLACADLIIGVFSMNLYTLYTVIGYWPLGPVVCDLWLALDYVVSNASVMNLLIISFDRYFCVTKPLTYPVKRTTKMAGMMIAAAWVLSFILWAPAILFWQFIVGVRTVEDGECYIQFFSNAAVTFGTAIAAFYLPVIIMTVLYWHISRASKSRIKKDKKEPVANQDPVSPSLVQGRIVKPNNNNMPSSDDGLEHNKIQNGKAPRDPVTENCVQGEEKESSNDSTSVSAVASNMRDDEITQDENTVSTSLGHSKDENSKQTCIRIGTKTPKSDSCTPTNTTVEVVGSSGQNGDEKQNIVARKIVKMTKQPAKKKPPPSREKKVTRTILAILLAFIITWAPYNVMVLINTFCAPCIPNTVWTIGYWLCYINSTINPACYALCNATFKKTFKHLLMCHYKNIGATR

Sigma intracellular receptor 2 (Homo sapiens), sequence (Q5BJF2 whole entry): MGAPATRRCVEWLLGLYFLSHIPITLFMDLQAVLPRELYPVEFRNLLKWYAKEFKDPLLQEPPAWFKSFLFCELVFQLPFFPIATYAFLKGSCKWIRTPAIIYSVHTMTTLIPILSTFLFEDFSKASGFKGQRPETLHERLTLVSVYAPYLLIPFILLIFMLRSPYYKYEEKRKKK
Muscarinic acetylcholine receptor M3 (Homo sapiens), sequence (P20309 whole entry, looked up): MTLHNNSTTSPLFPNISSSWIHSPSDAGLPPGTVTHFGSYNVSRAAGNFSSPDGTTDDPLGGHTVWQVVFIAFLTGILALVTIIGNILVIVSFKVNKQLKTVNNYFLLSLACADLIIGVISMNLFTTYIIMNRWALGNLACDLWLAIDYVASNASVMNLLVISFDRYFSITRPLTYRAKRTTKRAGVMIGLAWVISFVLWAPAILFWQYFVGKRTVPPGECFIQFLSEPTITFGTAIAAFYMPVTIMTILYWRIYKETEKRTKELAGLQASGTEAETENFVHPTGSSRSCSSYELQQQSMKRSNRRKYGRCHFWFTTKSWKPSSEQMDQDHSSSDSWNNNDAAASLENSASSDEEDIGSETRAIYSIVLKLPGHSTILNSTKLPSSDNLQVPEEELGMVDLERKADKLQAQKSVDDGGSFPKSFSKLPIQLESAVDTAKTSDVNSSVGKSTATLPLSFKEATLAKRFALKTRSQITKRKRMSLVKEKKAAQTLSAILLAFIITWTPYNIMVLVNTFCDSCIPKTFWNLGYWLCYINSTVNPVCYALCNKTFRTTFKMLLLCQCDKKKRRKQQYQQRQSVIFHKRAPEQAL

Row | Compound | inhibition [1] [%] | inhibition [2] [%] | inhibition [3] [%] | inhibition [4] [%] | inhibition [5] [%] | inhibition [6] [%] | inhibition [7] [%] | inhibition [8] [%] | inhibition [9] [%] | inhibition [10] [%] | inhibition [11] [%] | inhibition [12] [%] | inhibition [13] [%] | inhibition [14] [%] | inhibition [15] [%] | inhibition [16] [%] | inhibition [17] [%] | inhibition [18] [%] | inhibition [19] [%]
1 | CNC[C@H](O)c1cccc(O)c1 | 13.1 | 11.1 | 24.9 | -8.03 | 19.6 | 3.06 | 0.2 | 13.8 | 25.3 | 20.3 | 48.1 | 12.7 | 9.39 | – | – | – | – | – | –
2 | CN1CC(=O)N=C1NC(=O)Nc1cccc(Cl)c1 | -4.69 | 14.5 | 0.02 | 1.42 | -9.18 | -8.91 | -5.43 | -3.44 | 1.19 | 48.7 | 4.68 | -3.16 | -0.6 | 18.3 | 2.28 | 0.92 | 27.2 | – | –
3 | CN(C)C(=O)C(CCN1CCC(O)(c2ccc(Cl)cc2)CC1)(c1ccccc1)c1ccccc1 | 10.4 | 2.24 | 95.5 | – | 7.53 | – | – | 91.5 | – | 83.3 | 55.2 | 42.1 | 14.9 | 1.53 | – | 64.3 | 54.2 | -4.2 | –
4 | CCCCc1nc(Cl)c(CO)n1Cc1ccc(-c2ccccc2-c2nnn[nH]2)cc1 | 31.4 | 10.3 | 27.4 | – | 7.13 | – | -6.45 | 19.2 | – | 37.1 | 43.4 | 46.3 | 17.6 | -1.67 | – | – | 37 | 8.7 | -0.57
5 | CCN(CC)CCCCC1CCN(CC(=O)N2c3ccccc3C(=O)Nc3cccnc32)CC1 | 43 | 102 | 82.1 | 88.7 | 21.4 | – | 3.5 | 24.6 | 9.83 | 13.9 | 33.2 | 13.8 | -7.42 | 82.5 | – | 28.1 | -8.29 | 4.03 | 81.4
6 | CCCn1c(=O)c2[nH]c(-c3cnn(Cc4cccc(C(F)(F)F)c4)c3)nc2n(CC)c1=O | 3.01 | 5.66 | 18 | 3.75 | – | – | -4.02 | -6.13 | – | 35.7 | 10.2 | – | – | -3.39 | -2.72 | 45.8 | 0.57 | -6.47 | –
7 | CC(C)NCC(O)COc1cccc2ccccc12 (stereo not drawn) | 5.07 | 4.93 | 90 | – | 10.8 | – | 8.73 | 7.31 | – | 86.3 | 87.2 | 23.3 | 74.2 | 10.2 | 16.1 | 38.4 | 13.2 | – | –
8 | Nc1nc(NCCc2ccc(O)cc2)nc2nc(-c3ccco3)nn12 | – | -2.49 | 90.6 | -6.51 | – | -5.81 | 1.4 | 2.38 | 17.1 | 84.3 | 19.7 | 19.9 | – | 27.8 | -5.28 | 23.6 | 4.31 | 22.3 | –
9 | C=CCN1C[C@H](C)N([C@H](c2ccc(C(=O)N(CC)CC)cc2)c2cccc(O)c2)C[C@H]1C | 0.95 | 2.02 | 46.7 | -6.19 | -9.85 | 13.7 | 10 | 99.9 | 2.09 | 30 | 31.4 | 6.85 | 5.03 | – | 99.8 | 26.9 | – | – | –
10 | Cc1cccc([C@H](C)c2c[nH]cn2)c1C | 2.75 | -3.69 | 37.8 | – | 11.3 | -4.26 | 13.3 | -4.15 | 26.8 | 51.3 | 145 | 21.5 | 1.41 | 11.4 | – | 39.2 | 26.9 | 3.18 | –
11 | Cc1cccc(NC(=O)N[C@@H]2N=C(c3ccccc3)c3ccccc3N(C)C2=O)c1 | -5.59 | – | 15.4 | – | 18.3 | – | -5.37 | 8.95 | 53.4 | 63 | 24.6 | 0.6 | 6.3 | 0.34 | 22.5 | 44.1 | 14.6 | – | –
12 | N=C(N)SCCc1c[nH]cn1 | 98.6 | – | 13.8 | -9.79 | 111 | – | 45.7 | -6.86 | -6.33 | 33 | – | -0.38 | -1.7 | 3.23 | 5.15 | -0.41 | 6.59 | 3.8 | –
13 | CC(C)(C)NC[C@H](O)COc1nsnc1N1CCOCC1 | 10.1 | – | 10.5 | – | 3.02 | – | – | – | – | 16.9 | 19.4 | -0.36 | – | 6.52 | 3.37 | 31.4 | 15.6 | – | –
14 | COc1cc2c(CCNC(C)=O)c[nH]c2cc1Cl | – | 5.8 | -5.25 | – | 2.03 | – | – | -3.58 | -6.6 | 57.2 | 45.4 | – | – | – | -6.29 | 14.1 | -6.09 | – | –
15 | CN1C(=O)[C@@H](NC(=O)c2cc3ccccc3[nH]2)N=C(c2ccccc2)c2ccccc21 | 5.34 | 7.2 | 8.74 | – | -4.47 | -8.05 | 2.09 | 13 | 19.7 | 78.4 | 23.2 | 26.4 | 25.7 | -2.85 | 30.7 | 42.1 | -8.65 | 13.8 | –
